Measured values: patent US20190022239A1, “NOVEL BIOMOLECULE CONJUGATES AND USES THEREFOR” (The University of Western Australia, priority 2016, published 2019)

How the values were obtained:
[1] = Toxicity of repeated intravenous injections; assay type: in vivo; details: 0.5-10 μg daily i.v., total of 8 injections
Protocol: To determine potential toxicity effects of TNFα-CSG, the inventors then administered TNFα-CSG intravenously to mice (n=6) at a dose ranging from 0.5-10 μg daily, to a total of 8 injections. TNFα-CSG is non-toxic at these doses and frequency.

insulinoma = test: Tumour uptake of iron oxide micelles (MRI); assay type: in vivo, mice; details: 2 μg dose daily for five days; 6 hr circulation
Protocol: Reduced tumour ECM and stiffness, as well as improved perfusion was also shown to result in enhanced tumour uptake of a nano-imaging contrast agent. Specifically, insulinoma-bearing mice were treated with 2-10 μg TNFα-CSG or CSG control peptide by intravenous infection daily for five days. Following this, mice were intravenously injected with 100 μL of 1 mM iron oxide (IO) micelles (30 nm diameter). Tumours were harvested after 6 hr circulation and imaged by MRI and microscopic analysts of tissues mounted in 2% agarose. […] This accumulation was confirmed by immunostaining analysis of tissue cross sections using anti-FITC antibody.

hepatocellular carcinoma = test: Immune cell infiltration in hepatocellular carcinoma (FACS); assay type: in vivo, mice; details: 2 μg daily i.v. for 5 days, healthy livers
Protocol: Mice bearing hepatocellular carcinoma at 10 weeks of age were treated with 2 μg TNFα-CSG or control CSG peptide (in 100 μL) by daily intravenous injection for 5 days. The experiment was also conducted on mice with normal, healthy livers, FACS quantification of CD4+ and CD8+ T cells and infiltrating macrophages (CD11b+/CD68+) in whole tumours is shown in FIG. 7. Quantitative analysis of these tumours show at least 3 fold increase in immune cell infiltration compared to CSG-treated tumours (P<0.05).

4T1 tumour = test: Tumour uptake of Evans blue dye; assay type: in vivo, mice; details: 2 μg i.v. for five days; Evans blue 30 min
Protocol: As a result of the reduced tumour ECM content and increased tumour vessel perfusion (Example 4), the inventors then evaluated the ability of tumours treated with TNFα-CSG to take op various reagents. Mice bearing 4T1 tumour were treated with 2 μg TNFα-CSG or CSG control peptide by intravenous injection for five days. Following this, mice were intravenously injected with 100 μL, of 0.9% Evans blue solution and allowed to circulate for 30 min. Tumours were then harvested and photographed.

[2] = tested on: RIP-Tag insulinoma and 4T1 breast carcinoma; test: Tumour vessel perfusion (CD31:lectin ratio); assay type: in vivo, mice; details: 2 μg/day × 5
Protocol: The inventors then evaluated vessel perfusion in RIP-Tag insulinoma and 4T1. breast carcinoma from mice treated with TNFα-CSG (2 μg/day×5), as measured by CD31:lectin ratio following 10 min intravenous circulation of tomato green lectin.

[3] = tested on: RIP-Tag insulinoma and hepatocellular carcinoma; test: In vivo binding specificity of fluorescein-labelled TNFα-CSG and native TNFα; design: species or system mice; details: 130 μg i.v., 30 min circulation
Protocol: Binding specificity of TNFα-CSG to tumours in vivo was assessed by detecting fluorescein-labelled TNFα-CSG and native unconjugated TNFα following 130 μg intravenous injection (30 min circulation).

RIP-Tag insulinoma = test: Tumour ECM content (collagen-1, laminin, nidogen-1); assay type: in vivo, mice; details: 2 μg or 5 μg i.v. daily for five days
Protocol: As evidenced by analysis of the ECM components collagen-1, laminin and nidogen-1, intravenous injection of TNFα-CSG at a dose of 2 μg or 5 μg daily for five days to mice having a RIP-Tag insulinoma, specifically reduces tumour ECM content (FIG. 9).

4T1 tumours = test: Tumour clearance, whole microscopic images of 4T1 tumours; assay type: in vivo, mice; details: 10 μg for five days
4T1 breast carcinoma [4] = test: Tumour uptake of doxorubicin-micelles; assay type: in vivo, mice; details: 2 μg i.v. daily for 5 days, then 100 μL of 1 mM doxorubicin-micelles
Protocol: 4T1 breast carcinoma-bearing mice were treated with 2 μg TNFα-CSG or CSG control, peptide by intravenous injection, daily for 5 days. Mice were then injected with 100 μL of 1 mM doxorubicin-micelles (200 nm in size) and tissues including tumours, spleen and liver were collected for analysis.

4T1 breast tumours = test: Secondary metastasis of 4T1 breast tumours; assay type: in vivo, mice; details: 10 μg daily i.v., up to eight injections
Protocol: 4T1cells in blood, lung, liver and lymph nodes were harvested once the primary tumours reached 2,000 mm^3. Cell suspensions from these tissues were cultured in 6-thioguanine-containing media to select for 4T1 cells that are resistant to 6-thioguanine. Colonic metastasis of methylene blue stained cells were counted. It is known that the lung is the primary site of metastasis of breast tumours. […] Similarly, the colonic metastasis counts in liver and lymph nodes were lower in the TNFα-CSG treated group.

advanced insulinoma = test: Survival of mice bearing advanced insulinoma; assay type: in vivo; details: 5 μg daily i.v. for five days at 24 weeks of age
Protocol: Survival studies were conducted using mice bearing advanced insulinoma, at 24 weeks of age, treated with 5 μg TNFα-CSG or 0.8 μg CSG daily for five days by intravenous injection.

4T1 breast carcinoma [5] = test: Immune cell infiltration in 4T1 breast carcinoma (FACS); assay type: in vivo, mice; details: 2 μg daily i.v. for 5 days
From the text: Dextran coated iron oxide encapsulated with 18:0 PEG2000 PE micelle formulation and doxorabicin-micelles were made in the laboratory. 4T1 murine breast carcinoma is an orthotopic implant model by inoculating of 5×10^5 cells in die mammary fat pad of syngeneic BALB/c mice. RIP1-TagS insulinoma model (on C3H background) contains the oncogene SV40 Large T antigen (Tag; RIP, rat insulin gene promoter) that is exclusively expressed in β cells of the pancreas resulting in pancreatic tumours of neuroendocrine origin. ALB-Tag HOC (in C3H background) contains the oncogene SV40 Large T antigen (Tag) that is exclusively expressed in hepatocytes under the control of the albumin (ALB) promoter, resulting in rapid (non-metastatic) HCC tumour progression.
Mice bearing 4T1 breast carcinoma, when tumour size reached 500 mm^3, were treated with 0.5 and 2 μg TNFα-CSG or native TNFα (in 100 μL) by daily intravenous injection for 5 days. FACS quantification of CD4+ and CD8+ T cells and infiltrating macrophages (CD11b+/CD68+/F4/80+) harvested in whole tumours is presented in FIG. 5.
As noted in Example 2, native TNFα at 2 μg is toxic (all mice died after receiving 2 doses of 2 μg TNFα). A lower dose of native TNFα (0.5 μg) is not effective compared to 0.5 μg TNFα-CSG (FIG. 5).

TNFα-CSG: Mature murine TNFα (SEQ ID NO:6) with C-terminal conjugated peptide CSGRRSSKC connected via a GGG linker; recombinant fusion protein
toxicity [1]: non-toxic
accumulation of FITC-labelled IO micelles in tumours (MRI T2* and T2 relaxation) (insulinoma): increased accumulation of FITC-labelled IO micelles
loss of signal (T2 relaxation time) (insulinoma): significantly lower
effect on immune cell infiltration in normal liver (hepatocellular carcinoma): no effect on normal liver
tumour permeability to Evans blue dye vs control-treated tumours (4T1 tumour): more permeable to Evans blue dye
vessel width vs control treated tumours [2]: significantly wider
CD31:lectin ratio ([2]; 10 min i.v. circulation of lectin): ~1
binding to tumour tissue in vivo [3]: specifically targeted
binding to normal tissues in vivo ([3]; normal tissues): limited binding to normal pancreas, liver, heart, and kidney
ECM content in normal pancreas (RIP-Tag insulinoma): remained unaltered
tumour ECM content (collagen-1, laminin, nidogen 1, excluding basement membrane) (RIP-Tag insulinoma): significant reduction in ECM content
tumour clearance (hypoxia marker staining) (4T1 tumours): large areas at the centre of the tumour devoid of tumour cells
doxorubicin (autofluorescence) in treated tumours (4T1 breast carcinoma [4]): strong traces of doxorubicin
hypoxia in primary tumours (4T1 breast tumours): significantly reduced hypoxia
lung metastasis (cell density/tissue) (4T1 breast tumours): significantly reduced lung metastasis
metastatic colony counts in liver and lymph nodes (4T1 breast tumours): lower
tumour centre (4T1 breast tumours): enlarged tumour centres that were cleared of tumour burden
survival compared to CSG-treated mice (advanced insulinoma): significantly enhanced
increase in immune cell infiltration (CD4+, CD8+ T cells, macrophages) (4T1 breast carcinoma [5]): most effective
